{"source": "paper PMC6100113", "about": "“Involvement of CYP4F2 in the Metabolism of a Novel Monophosphate Ester Prodrug of Gemcitabine and Its Interaction Potential In Vitro” (Molecules : A Journal of Synthetic Chemistry and Natural …, 2018)", "key": {"[1]": {"experiment": "Metabolic stability in human liver microsomes", "format": "in vitro ADME", "conditions": "1 μM", "experimental": "(§1) Stability of Compound-3 was first investigated in microsomal systems from human and rat. The microsomal protein and Compound-3 concentrations were optimized to 0.2 mg/mL and 1 µM, respectively. Before the start of the incubation, reaction mixtures containing phosphate buffer (100 mM, pH 7.4), microsomes and Compound-3 in a total volume of 50 µL were warmed up at 37 °C for 10 min. The reaction was started with the addition of NADPH at a final concentration of 1 mM. Incubations were terminated at a specified time with the addition of 100 µL ice-cold acetonitrile containing the internal standard. The samples were then centrifuged, and aliquots of 10 µL of the supernatants were transferred into liquid chromatography-tandem mass spectrometry (LC-MS/MS) for the analysis of Compound-3 levels."}, "[2]": {"experiment": "Metabolic stability in rat intestinal microsomes", "format": "in vitro ADME", "conditions": "rat intestinal microsomes 0.2 mg/mL, with NADPH, 1 μM, 37 °C", "experimental": "as §1"}}, "data": [{"smiles": "CCCCCCCCCCCCCCCCCCOCCOP(=O)(O)OCC1OC(n2ccc(N)nc2=O)C(F)(F)C1O", "note": "(stereo not drawn) [Compound-3]", "values": [{"measurement": "stability in microsomes in the absence of NADPH", "setting": "[1]; human and rat liver and intestinal microsomes, absence of NADPH", "result": "relatively stable"}, {"measurement": "disappearance after 60 min incubation", "setting": "[1]; human liver microsomes 0.2 mg/mL, with NADPH, 37 °C, 60 min", "result": "more than 70%"}, {"measurement": "disappearance in 60 min", "setting": "[2]", "result": "~ 20%"}]}]}
